From patent publication US11807648B2, “Process for preparing substituted polycyclic pyridone derivative and crystal thereof” (priority 2016, dated 2023)

Legend:
CYP3A4 [1] = target: T1, CYP3A4 (Homo sapiens, UniProt P08684); assay: biochemical; format: in vitro ADME; parameters: Using commercially available pooled human hepatic microsome; from tissue; conditions: pooled human hepatic microsome 0.2 mg protein/mL, 15 minutes, 37° C.
Description: (§1) Test Example 3: CYP Inhibition Test
(§2) Using commercially available pooled human hepatic microsome and employing, as a reference, typical substrate metabolism reactions of human main five CYP enzyme forms (CYP1A2, 2C9, 2C19, 2D6, 3A4), i.e., 7-ethoxyresorufin O-deethylation (CYP1A2), tolbutamide methyl-hydroxylation (CYP2C9), mephenytoin 4′-hydroxylation (CYP2C19), dextromethorphan O-demethylation (CYP2D6), and terfenedine hydroxylation (CYP3A4), the degree of inhibition by Compound (V) was assessed for each metabolite production.
The reaction conditions were as follows: […]
For each of the five substances, a reaction solution was prepared on a 96-well plate by adding the substrate, human hepatic microsome and Compound (V) to 50 mmol/L Hepes buffer in the proportion as described above. […] After centrifugation at 3000 rpm for minutes, resorufin (CYP1A2 metabolite) in the supernatant was measured by fluorescent multi-label counter, and hydroxytolbutamide (CYP2C9 metabolite), 4′-hydroxymephenytoin (CYP2C19 metabolite), dextrorphan (CYP2D6 metabolite) and terfenadine alcohol (CYP3A4 metabolite) were measured by LC/MS/MS. […]

CYP2C19 = target: T2, CYP2C19 (Homo sapiens, UniProt P33261); assay: biochemical; format: in vitro ADME; conditions: pooled human hepatic microsome 0.2 mg protein/mL, 15 minutes, 37° C.
T2 construct: Using commercially available pooled human hepatic microsome; from tissue
T2 sequence (P33261 whole entry): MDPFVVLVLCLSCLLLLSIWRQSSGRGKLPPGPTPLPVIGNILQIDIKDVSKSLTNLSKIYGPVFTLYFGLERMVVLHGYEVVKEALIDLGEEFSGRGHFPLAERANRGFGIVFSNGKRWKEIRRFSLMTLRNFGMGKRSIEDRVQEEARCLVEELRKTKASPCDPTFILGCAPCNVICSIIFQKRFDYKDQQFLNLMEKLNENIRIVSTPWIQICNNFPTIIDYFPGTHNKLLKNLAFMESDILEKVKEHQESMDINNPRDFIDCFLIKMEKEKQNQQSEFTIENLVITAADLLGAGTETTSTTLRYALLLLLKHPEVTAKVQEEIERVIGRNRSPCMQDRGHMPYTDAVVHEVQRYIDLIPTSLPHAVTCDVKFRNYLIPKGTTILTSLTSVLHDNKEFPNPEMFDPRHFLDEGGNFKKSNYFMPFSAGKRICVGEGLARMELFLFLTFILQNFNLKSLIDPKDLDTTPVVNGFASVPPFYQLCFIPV
Description: as §1, §2
(§3) The reaction conditions were as follows:
(§4) Substrate: 0.5 μmol/L ethoxyresorufin (CYP1A2), 100 μmol/L tolbutamide (CYP2C9), 50 μmol/L S-mephenytoin (CYP2C19), 5 μmol/L dextromethorphan (CYP2D6), 1 μmol/L terfenedine (CYP3A4); Reaction time: 15 minutes; Reaction temperature: 37° C.; Enzyme: pooled human hepatic microsome 0.2 mg protein/mL; Concentration of Compound (V): 1, 5, 10, 20 μmol/L (four points).
(§5) For each of the five substances, a reaction solution was prepared on a 96-well plate by adding the substrate, human hepatic microsome and Compound (V) to 50 mmol/L Hepes buffer in the proportion as described above. NADPH, which is a cofactor, was added to initiate the metabolism reaction. After incubating at 37° C. for 15 minutes, a methanol/acetonitrile solution (1/1 (v/v)) was added to quench the reaction. After centrifugation at 3000 rpm for minutes, resorufin (CYP1A2 metabolite) in the supernatant was measured by fluorescent multi-label counter, and hydroxytolbutamide (CYP2C9 metabolite), 4′-hydroxymephenytoin (CYP2C19 metabolite), dextrorphan (CYP2D6 metabolite) and terfenadine alcohol (CYP3A4 metabolite) were measured by LC/MS/MS.
(§6) As a control, DMSO (the solvent for dissolving Compound (V)) was added solely to the reaction system. The remaining activity (%) of Compound (V), relative to the control (100%), was calculated at each concentration of the compound, and the IC50 was calculated by reverse presumption by a logistic model using the concentration and the inhibition rate.

CYP1A2 = target: T3, CYP1A2 (Homo sapiens, UniProt P05177); assay: biochemical; format: in vitro ADME; conditions: pooled human hepatic microsome 0.2 mg protein/mL, 15 minutes, 37° C.
T3 construct: Using commercially available pooled human hepatic microsome; from tissue
T3 sequence (P05177 1-516): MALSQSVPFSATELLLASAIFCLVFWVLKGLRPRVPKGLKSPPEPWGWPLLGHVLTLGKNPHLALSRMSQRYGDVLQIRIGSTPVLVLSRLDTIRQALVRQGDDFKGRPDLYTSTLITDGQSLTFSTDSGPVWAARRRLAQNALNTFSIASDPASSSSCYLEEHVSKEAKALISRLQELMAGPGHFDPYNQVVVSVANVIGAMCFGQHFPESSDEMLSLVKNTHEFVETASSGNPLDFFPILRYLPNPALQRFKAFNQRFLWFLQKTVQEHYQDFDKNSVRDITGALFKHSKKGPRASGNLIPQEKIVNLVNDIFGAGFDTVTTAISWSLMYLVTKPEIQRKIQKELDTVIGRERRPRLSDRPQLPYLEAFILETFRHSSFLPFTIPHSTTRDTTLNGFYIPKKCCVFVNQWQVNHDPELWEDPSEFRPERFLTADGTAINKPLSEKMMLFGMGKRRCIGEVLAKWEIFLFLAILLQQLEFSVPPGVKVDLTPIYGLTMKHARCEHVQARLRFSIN
Description: as §1, §2, §3, §4, §5, §6

CYP2D6 = target: T4, CYP2D6 (Homo sapiens, UniProt P10635); assay: biochemical; format: in vitro ADME; conditions: pooled human hepatic microsome 0.2 mg protein/mL, 15 minutes, 37° C.
T4 construct: Using commercially available pooled human hepatic microsome; from tissue
T4 sequence (P10635 whole entry): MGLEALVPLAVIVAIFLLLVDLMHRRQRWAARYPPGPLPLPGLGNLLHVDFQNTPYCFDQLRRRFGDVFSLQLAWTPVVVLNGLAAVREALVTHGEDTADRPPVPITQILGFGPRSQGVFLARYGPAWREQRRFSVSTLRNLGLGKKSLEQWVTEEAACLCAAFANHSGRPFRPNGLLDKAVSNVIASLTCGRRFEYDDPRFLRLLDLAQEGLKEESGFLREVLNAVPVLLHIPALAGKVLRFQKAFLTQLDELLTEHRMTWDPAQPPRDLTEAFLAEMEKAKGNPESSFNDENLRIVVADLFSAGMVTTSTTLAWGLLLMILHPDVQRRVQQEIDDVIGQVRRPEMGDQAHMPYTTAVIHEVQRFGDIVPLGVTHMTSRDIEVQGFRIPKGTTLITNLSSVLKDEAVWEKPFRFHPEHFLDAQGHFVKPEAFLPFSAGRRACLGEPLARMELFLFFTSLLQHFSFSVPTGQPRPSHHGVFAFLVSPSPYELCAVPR
Description: as §1, §2, §3, §4, §5, §6

CYP2C9 = target: T5, CYP2C9 (Homo sapiens, UniProt P11712); assay: biochemical; format: in vitro ADME; conditions: pooled human hepatic microsome 0.2 mg protein/mL, 15 minutes, 37° C.
T5 construct: Using commercially available pooled human hepatic microsome; from tissue
T5 sequence (P11712 whole entry): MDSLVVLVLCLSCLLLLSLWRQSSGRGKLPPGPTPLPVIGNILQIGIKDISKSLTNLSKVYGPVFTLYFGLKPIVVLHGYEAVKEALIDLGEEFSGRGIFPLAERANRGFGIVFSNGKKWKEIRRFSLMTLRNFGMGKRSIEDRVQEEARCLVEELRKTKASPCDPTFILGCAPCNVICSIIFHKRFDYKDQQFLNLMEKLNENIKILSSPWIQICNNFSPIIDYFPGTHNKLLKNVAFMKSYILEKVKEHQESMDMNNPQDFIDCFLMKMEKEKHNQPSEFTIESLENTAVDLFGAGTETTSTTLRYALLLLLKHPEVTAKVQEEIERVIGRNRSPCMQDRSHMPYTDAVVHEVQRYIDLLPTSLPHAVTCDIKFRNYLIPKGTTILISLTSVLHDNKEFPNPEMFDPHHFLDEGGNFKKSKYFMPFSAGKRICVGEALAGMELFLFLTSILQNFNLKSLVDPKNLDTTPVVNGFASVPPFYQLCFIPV
Description: as §1, §2, §3, §4, §5, §6

CYP3A4 [2] = target: T1, CYP3A4; format: in vitro ADME; parameters: host or cells: Escherichia coli; conditions: pre-reaction time 0 or 30 minutes, 7-BFC substrate
Protocol: Test Example 6: CYP3A4 Fluorescent MBI Test
The CYP3A4 fluorescent MBI test investigates enhancement of CYP3A4 inhibition by Compound (V) in metabolism reaction. 7-benzyloxytrifluoromethylcoumarin (7-BFC) was debenzylated by CYP3A4 enzyme (enzyme expressed in Escherichia coli) and a metabolite, 7-hydroxytrifluoromethylcoumarin (7-HFC) which emits fluorescent light was produced. The test was performed using 7-HFC production reaction as an index.
The reaction conditions were as follows: Substrate, 5.6 μmol/L 7-BFC; pre-reaction time, 0 or 30 minutes; reaction time, 15 minutes; reaction temperature, 25° C. […]
A pre-reaction solution containing the enzyme and Compound (V) in K-Pi buffer (pH 7.4) as described above was added to a 96-well plate. […] For each of the plates on which the reaction was performed, the fluorescent value of the metabolite 7-HFC was measured by fluorescent plate reader (Ex=420 nm, Em=535 nm).
As a control for remaining activity, DMSO (i.e., the solvent for dissolving Compound (V)) was added solely to the reaction system, and the remaining activity (%) was calculated for each concentration of Compound (V) in the solution. The IC50 value was calculated by reverse-presumption by logistic model using the concentration and the inhibition rate. […]

[3] = format: in vitro ADME; conditions: 2 μmol/L of the compound, human liver microsomes 0.5 mg protein/mL, 30 minutes, 37° C., NADPH
Protocol: Test Example 5: Metabolism Stability Test
Compound (V) was reacted with commercially available pooled human hepatic microsomes for a certain time. The remaining rate of the compound was calculated by comparing the reacted sample and the unreacted sample to assess the degree of metabolism of Compound (V) in liver.
The compound was reacted in 0.2 mL of buffer (50 mmol/L Tris-HCl pH 7.4, 150 mmol/L potassium chloride, 10 mmol/L magnesium chloride) containing 0.5 mg protein/mL of human liver microsomes at 37° C. for 0 minute or 30 minutes in the presence of 1 mmol/L NADPH (oxidative reaction). After the reaction, 50 μL of the reaction solution was added to 100 μL of methanol/acetonitrile=1/1 (v/v), mixed and centrifuged at 3000 rpm for 15 minutes. The amount of Compound (V) in the supernatant was measured by LC/MS/MS, and the remaining rate of the compound after the reaction was calculated, with the amount of the compound at 0 minute of reaction time being 100%. The hydrolysis reaction was carried out in the absence of NADPH, and the glucuronidation reaction was carried out in the presence of 5 mmol/L UDP-glucuronic acid instead of NADPH, and the subsequent procedure was carried out in the same manner as described.

[4] = test system: red blood cell suspension prepared from ovine defibrinated blood of sheep; assay: Photohemolysis test; format: cell-based; conditions: UVA and UVB irradiation 10 J/cm^2, 290-400 nm
Protocol: Test Example 12: Photohemolysis Test
Compound (V) was dissolved at a predetermined concentration and mixed on a microplate with a […] (2.5 v/v %) prepared from ovine defibrinated blood of sheep. Light irradiation in the UVA and UVB wavelength regions (10 J/cm^2, 290-400 nm) was performed using ultraviolet fluorescent lamp (GL20SE lamp, Sankyo Denki and FL20S-BLB lamp, Panasonic). The mixed solution after the irradiation was collected and centrifuged. After centrifugation, the supernatant was collected and transferred to a microplate, and the absorbance (at 540 or 630 nm) of the supernatant was measured. The absorbance at 540 and 630 nm were used as an index of biological membrane damage (% light hemolysis) and lipid membrane peroxidation (methemoglobin production), respectively. (−): less than 10% for photohemolysis rate and less than 0.05 for the change in absorbance at 630 nm; (+): 10% or more for photohemolysis rate and 0.05 or more for the change in absorbance at 630 nm.

[5] = Plasma concentration after oral administration of Compound (VI) to rats; format: in vivo; conditions: after oral administration of Compound (VI) to rats under non-fasting condition
Description: FIG. 7 is a time-course of the concentration in plasma of the compound of formula (V) after oral administration of the compound of formula (VI), which is a prodrug of the compound of formula (V), to rats under non-fasting condition.
FIG. 8 is a time-course of the concentration in plasma of the compound of formula (VI) after oral administration of the compound of formula (VI), which is a prodrug of the compound of formula (V), to rats under non-fasting condition.
FIG. 7 and FIG. 8 show the time-course of the concentration in plasma of Compound (V) and its prodrug Compound (VI) after oral administration of Compound (VI) to rats under non-fasting condition.

T1 sequence (P08684 whole entry): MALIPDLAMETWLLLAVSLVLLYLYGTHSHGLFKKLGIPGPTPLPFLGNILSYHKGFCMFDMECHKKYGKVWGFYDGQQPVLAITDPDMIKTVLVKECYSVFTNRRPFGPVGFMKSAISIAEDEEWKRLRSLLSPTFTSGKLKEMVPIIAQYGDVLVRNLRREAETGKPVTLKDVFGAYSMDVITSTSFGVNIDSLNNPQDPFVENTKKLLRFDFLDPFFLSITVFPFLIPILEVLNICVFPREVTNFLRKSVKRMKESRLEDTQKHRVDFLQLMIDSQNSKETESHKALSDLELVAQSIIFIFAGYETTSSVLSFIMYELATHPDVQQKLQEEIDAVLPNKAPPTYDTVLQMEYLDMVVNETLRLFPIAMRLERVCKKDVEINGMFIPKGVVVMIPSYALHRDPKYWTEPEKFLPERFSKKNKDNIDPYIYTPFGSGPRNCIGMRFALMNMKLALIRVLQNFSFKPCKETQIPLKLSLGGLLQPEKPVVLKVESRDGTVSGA

| Compound | IC50 (CYP3A4 [1]) | IC50 (CYP2C19) | IC50 (CYP1A2) | IC50 (CYP2D6) | IC50 (CYP2C9) | CYP3A4 fluorescent MBI (difference in IC50 values with/without pre-incubation) (CYP3A4 [2]) | remaining rate in oxidative metabolism [3] | photohemolysis [4] | concentration in plasma sample [5] |
| --- | --- | --- | --- | --- | --- | --- | --- | --- | --- |
| O=C1c2c(O)c(=O)ccn2N([C@@H]2c3ccccc3SCc3c2ccc(F)c3F)[C@@H]2COCCN12 [Compound (V)] | > 20 µM | > 20 µM | > 20 µM | > 20 µM | > 20 µM | (−) (a difference of 3 μM or less was defined as (−)) | 90.1% | (−) ((−): less than 10% for photohemolysis rate and less than 0.05 for the change in absorbance at 630 nm) |  |
| COC(=O)OCOc1c2n(ccc1=O)N([C@@H]1c3ccccc3SCc3c1ccc(F)c3F)[C@@H]1COCCN1C2=O [Compound (VI)] |  |  |  |  |  |  |  |  | below the limit of quantification |
